Reference: article PMC2442655, “Structure-Activity Relationship and Substrate-Dependent Phenomena in Effects of Ginsenosides on Activities of Drug-Metabolizing P450 Enzymes” (PLoS ONE, 2008)
Read-outs that look alike come from different tables or passages of the source.

Tests used:
CYP1A2 = target: T1, CYP1A2 (Homo sapiens, UniProt P05177); experiment: Vivid CYP1A2 blue fluorescent assay; conditions: for IC50: IC50 CYP1A2 blue, cDNA-expressed enzyme, Vivid blue substrate 3 µM; for inhibition at 30 min, 50 µM: human
T1 sequence (P05177 1-516): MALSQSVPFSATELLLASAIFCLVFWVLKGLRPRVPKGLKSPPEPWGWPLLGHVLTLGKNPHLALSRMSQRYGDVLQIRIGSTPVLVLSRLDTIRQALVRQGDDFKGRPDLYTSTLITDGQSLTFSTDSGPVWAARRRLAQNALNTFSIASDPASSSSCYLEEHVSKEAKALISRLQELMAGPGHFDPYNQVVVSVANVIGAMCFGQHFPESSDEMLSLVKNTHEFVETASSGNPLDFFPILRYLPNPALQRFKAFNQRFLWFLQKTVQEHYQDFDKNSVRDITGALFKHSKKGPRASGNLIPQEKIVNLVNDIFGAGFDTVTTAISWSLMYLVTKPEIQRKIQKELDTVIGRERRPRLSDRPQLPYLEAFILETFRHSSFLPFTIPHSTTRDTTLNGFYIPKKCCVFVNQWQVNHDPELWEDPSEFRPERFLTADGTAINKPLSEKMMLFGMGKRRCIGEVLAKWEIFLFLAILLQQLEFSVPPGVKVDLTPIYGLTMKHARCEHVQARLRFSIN
Protocol: (§1) The inhibition of the catalytic activities of cDNA-expressed human P450 enzymes by ginsenosides was determined using Vivid® P450 screening kits (CYP1A2 blue, CYP2C9 red, CYP2C19 blue, CYP2D6 blue, CYP3A4 green and red) according to the manufacturer's instructions (Invitrogen Corporation; Carlsbad, CA, USA).
(§2) In brief, the assays were carried out in Costar® black-wall 96-well plates with ultra thin clear bottoms (Corning Inc, Corning, NY, USA) in a kinetic assay mode. Stock solutions (10 mM) of ginsenosides in methanol were prepared and diluted to various concentrations (2.5× 100, 50, 10, 5, 1 µM). For each well, 40 µL of solution of test compounds or vehicle was incubated with 50 µL pre-mixture (mixture of BACULOSOMES® reagent, regeneration system and reaction buffer) at 37°C for 20 min. The reaction was initiated by adding 10 µL of a mixture of substrate and NADP^+ per well with a respective concentration of Vivid® substrate (Table 1). The plate was read immediately for fluorescence changes every 0.5 min at 37°C for 30 min using a FlexStation II384 fluorometric plate reader (Molecular Devices, Sunnyvale, CA, USA) with respective excitation and emission wavelengths for each P450 enzyme (Table 1). The final methanol volume in the reaction was less than or equal to 1%.

CYP2C9 = target: T2, CYP2C9 (Homo sapiens, UniProt P11712); experiment: Vivid CYP2C9 red fluorescent assay; format: in vitro ADME
T2 construct: purchased Invitrogen Corporation
T2 sequence (P11712 whole entry): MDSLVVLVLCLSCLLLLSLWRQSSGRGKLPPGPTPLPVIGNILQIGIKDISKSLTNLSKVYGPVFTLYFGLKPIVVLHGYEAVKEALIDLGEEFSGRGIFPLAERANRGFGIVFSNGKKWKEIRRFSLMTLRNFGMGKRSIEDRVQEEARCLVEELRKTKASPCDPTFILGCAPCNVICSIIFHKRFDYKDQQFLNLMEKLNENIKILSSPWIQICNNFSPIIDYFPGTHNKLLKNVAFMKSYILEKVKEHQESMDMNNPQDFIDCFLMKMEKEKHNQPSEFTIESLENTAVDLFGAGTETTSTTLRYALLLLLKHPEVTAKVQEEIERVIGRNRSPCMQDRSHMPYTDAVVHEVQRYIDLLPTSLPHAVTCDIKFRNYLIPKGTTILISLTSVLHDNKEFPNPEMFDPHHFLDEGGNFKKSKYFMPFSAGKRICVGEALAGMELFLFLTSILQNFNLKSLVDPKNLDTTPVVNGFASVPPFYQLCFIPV
Protocol: In brief, the assays were carried out in Costar® black-wall 96-well plates with ultra thin clear bottoms (Corning Inc, Corning, NY, USA) in a kinetic assay mode. […] For each well, 40 µL of solution of test compounds or vehicle was incubated with 50 µL pre-mixture (mixture of BACULOSOMES® reagent, regeneration system and reaction buffer) at 37°C for 20 min. […] The final methanol volume in the reaction was less than or equal to 1%.

CYP2C19 = CYP2C19 (Homo sapiens, UniProt P33261); experiment: Vivid CYP2C19 blue fluorescent assay
CYP2C19, sequence (P33261 whole entry): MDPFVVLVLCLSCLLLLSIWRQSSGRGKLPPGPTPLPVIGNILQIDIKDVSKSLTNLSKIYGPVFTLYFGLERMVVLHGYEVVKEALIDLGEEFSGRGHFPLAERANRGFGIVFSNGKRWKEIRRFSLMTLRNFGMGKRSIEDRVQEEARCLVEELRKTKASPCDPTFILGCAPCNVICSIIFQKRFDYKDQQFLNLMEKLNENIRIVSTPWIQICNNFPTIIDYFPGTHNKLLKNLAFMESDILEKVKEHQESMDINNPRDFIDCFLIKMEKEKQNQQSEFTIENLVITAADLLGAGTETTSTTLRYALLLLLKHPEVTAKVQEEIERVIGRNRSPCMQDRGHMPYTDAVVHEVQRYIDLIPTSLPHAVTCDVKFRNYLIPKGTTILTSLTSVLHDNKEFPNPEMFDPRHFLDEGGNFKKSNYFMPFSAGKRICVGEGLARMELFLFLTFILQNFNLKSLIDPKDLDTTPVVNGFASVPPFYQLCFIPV
Protocol: as §1, §2

CYP2D6 = CYP2D6 (Homo sapiens, UniProt P10635); experiment: Vivid CYP2D6 blue fluorescent assay; conditions: for inhibition at 30 min, 50 µM: human
CYP2D6, sequence (P10635 whole entry): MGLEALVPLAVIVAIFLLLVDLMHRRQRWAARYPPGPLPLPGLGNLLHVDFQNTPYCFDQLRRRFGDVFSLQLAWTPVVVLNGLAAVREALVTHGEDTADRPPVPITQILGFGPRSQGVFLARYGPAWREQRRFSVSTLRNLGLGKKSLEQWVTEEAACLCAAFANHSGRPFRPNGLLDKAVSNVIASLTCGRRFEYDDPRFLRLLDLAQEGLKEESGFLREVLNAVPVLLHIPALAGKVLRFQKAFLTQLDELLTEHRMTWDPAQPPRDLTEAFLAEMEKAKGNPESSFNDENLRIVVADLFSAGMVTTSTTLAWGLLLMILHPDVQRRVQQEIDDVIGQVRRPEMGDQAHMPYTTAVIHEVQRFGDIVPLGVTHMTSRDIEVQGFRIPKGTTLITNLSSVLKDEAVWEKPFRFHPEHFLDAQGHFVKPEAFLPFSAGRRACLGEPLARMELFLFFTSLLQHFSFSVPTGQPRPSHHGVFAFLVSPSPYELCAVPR
Protocol: as §1, §2

CYP3A4 [1] = target: T3, CYP3A4 (Homo sapiens, UniProt P08684); experiment: Vivid CYP3A4 green fluorescent assay
T3 sequence (P08684 whole entry): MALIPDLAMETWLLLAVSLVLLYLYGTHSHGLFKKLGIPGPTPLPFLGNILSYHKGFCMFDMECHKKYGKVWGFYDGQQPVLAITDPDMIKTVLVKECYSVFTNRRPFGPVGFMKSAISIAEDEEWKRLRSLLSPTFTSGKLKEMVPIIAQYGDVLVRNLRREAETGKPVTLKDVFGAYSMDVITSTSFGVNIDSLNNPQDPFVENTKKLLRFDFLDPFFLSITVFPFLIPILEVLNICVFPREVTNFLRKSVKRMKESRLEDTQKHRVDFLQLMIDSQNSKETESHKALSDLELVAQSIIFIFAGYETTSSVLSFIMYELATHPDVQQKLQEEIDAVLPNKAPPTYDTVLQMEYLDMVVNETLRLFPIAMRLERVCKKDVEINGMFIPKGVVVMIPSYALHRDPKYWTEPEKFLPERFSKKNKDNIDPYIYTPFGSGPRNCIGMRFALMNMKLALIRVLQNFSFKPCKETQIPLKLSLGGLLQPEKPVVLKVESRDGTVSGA
Protocol: as §1, §2

CYP3A4 [2] = target: T3, CYP3A4; experiment: Vivid CYP3A4 red fluorescent assay; conditions: for Effect on CYP3A4 catalytic activity, Vivid red assay: red substrate
Protocol: as §1, §2

CYP3A4 [3] = target: T3, CYP3A4; experiment: Carbamazepine 10,11-epoxidation in human liver microsomes; conditions: for Effect on in vitro CBZ metabolism: 1-50 µM
Protocol: (§3) The effects of the ginsenosides and sapogenins on the in vitro metabolism of CBZ were evaluated using HLM. […] Vehicle control samples were treated with methanol at a final concentration of 0.5% instead of test compounds. The reaction was initiated by adding 60 µL pre-warmed NADPH-regenerating system (50 µL BD solution A and 10 µL BD solution B). After incubation at 37°C for 30 min, the reaction system was quenched by adding 0.4 ml ice-cold acetonitrile, which was mixed well and centrifuged at 4°C (10,000 g, 10 min). The supernatant (0.4 ml) was collected, mixed with 0.8 ml acetonitrile and then centrifuged at 4°C (10,000 g, 10 min). The supernatant (30 µL) was diluted with 970 µL ddH2O and 50 µL of the mixture was injected onto the high performance liquid chromatography/tandem mass spectrometry (HPLC-MS-MS) system for analysis. […] Microsomal studies using NF as the substrate were conducted as described above for CBZ with several modifications. The NF concentration was 1 µM. The supernatant (0.4 ml) of the reaction system after quenching and centrifugation was also combined with 0.8 ml acetonitrile and centrifuged, and 10 µL of the resultant supernatant was directly injected onto the HPLC-MS-MS system for analysis.
(§4) The HPLC was performed using an Agilent 1200 system (Palo Alto, CA, USA) equipped with a binary pump and an auto-sampler. […] The elution lasted for 8 min.
(§5) The MS analysis was performed on a 4000Q Trap™ triple quadrupole mass spectrometer (Applied Biosystems/MDS Sciex Instruments, Concord, Ontario, Canada) equipped with a Turbo V ion source (TurboIonSpray™ probe was used), a Dell™ computer, and Analyst™ software. Electrospray ionization in the positive mode was employed to analyze CBZ-E and ONF, respectively. The compound parameters for CBZ-E and ONF were: declustering potential, 65 and 95 units, and collision energy, 39 and 40 units, respectively. The ion source parameters were as follows: curtain gas, 15 units; collision gas, medium; ion spray voltage, 4000 and 5000 V, respectively; temperature, 650 and 350°C, respectively; ion source gas 1, 60.0 and 65.0 units, respectively; ion source gas 2, 45.0 units.

CYP3A4 [4] = target: T3, CYP3A4; experiment: Nifedipine oxidation in human liver microsomes; conditions: for Effect on NF metabolism: 1-50 µM; for Effect on NF in vitro metabolism: low concentrations (1∼10 µM)
Protocol: as §3, §4, §5

CYP3A4 [5] = test system: CYP3A4; set-up: method as in PMID 15133536; conditions: read-out: IC50 CYP3A4-mediated testosterone 6β-hydroxylation; cited from earlier work
[6] = recombinant (cDNA-expressed) CYP1A2 BACULOSOMES, probe Vivid blue substrate 3 µM
[7] = cDNA-expressed enzyme, Vivid red substrate 2 µM, maximum concentration 50 µM, read-out: IC50 CYP2C9 red
[8] = recombinant (cDNA-expressed) CYP2D6 BACULOSOMES, probe Vivid blue substrate 10 µM

SMILES	IC50 (CYP1A2) [µM]	inhibition at 30 min, 50 µM (CYP1A2; [6]) [%]	IC50 (CYP2C9; [7]) [µM]	IC50 (CYP2C19) [µM]	IC50 (CYP2D6) [µM]	inhibition at 30 min, 50 µM (CYP2D6; [8]) [%]	IC50 (CYP3A4 [1]) [µM]	Effect on CYP3A4 catalytic activity, Vivid red assay (CYP3A4 [2])	Effect on in vitro CBZ metabolism (CYP3A4 [3])	Effect on NF metabolism (CYP3A4 [4])	IC50 (CYP3A4 [2]) [µM]	Effect on NF in vitro metabolism (CYP3A4 [4])	other results
CC(C)(O)CCC[C@@](C)(O)[C@H]1CC[C@]2(C)[C@@H]1[C@H](O)C[C@@H]1[C@@]3(C)CC[C@H](O)C(C)(C)[C@@H]3CC[C@]12C [20(R)-25-OH-PPD, 20(R)-dammarane-3β, 12β, 20, 25-tetrol]	> 100	22.8	7.6	69.1	> 50	31.8	25.6	activated the catalytic activity of CYP3A4	substantially activated	negligible	–	–	Activation of CYP3A4, Vivid red assay (fold) (CYP3A4 [2]; 10 µM): about two-fold
CC(C)=CCC[C@](C)(O[C@@H]1O[C@H](CO)[C@@H](O)[C@H](O)[C@H]1O)[C@H]1CC[C@]2(C)[C@@H]1[C@H](O)C[C@@H]1[C@@]3(C)CC[C@H](O[C@@H]4O[C@H](CO)[C@@H](O)[C@H](O)[C@H]4O[C@@H]4O[C@H](CO)[C@@H](O)[C@H](O)[C@H]4O)C(C)(C)[C@@H]3CC[C@]12C [Rd]	> 100	38.3	> 50	> 100	> 50	18.1	> 100	–	–	–	72.7	–	inhibition at 30 min, 50 µM (CYP2C9; human, recombinant (cDNA-expressed) CYP2C9 BACULOSOMES, probe Vivid red substrate 2 µM): 34.8%; inhibition at 30 min, 50 µM (CYP2C19; human, recombinant (cDNA-expressed) CYP2C19 BACULOSOMES, probe Vivid blue substrate 10 µM): 27.7%; inhibition at 30 min, 50 µM (CYP3A4 [1]; human, recombinant (cDNA-expressed) CYP3A4 BACULOSOMES, probe Vivid green substrate 2 µM): 12.6%; IC50 (CYP3A4 [5]): 62 µM
CC(C)=CCC[C@](C)(O)[C@H]1CC[C@]2(C)[C@@H]1[C@H](O)C[C@@H]1[C@@]3(C)CC[C@H](O)C(C)(C)[C@@H]3CC[C@]12C [PPD, protopanaxadiol]	86.6	–	8	52.6	> 50	25.9	9.3	inhibited CYP3A4 in a dose-dependent manner	substantially activated	–	43.1	weak activation effect	Activation of CBZ metabolism (fold) (CYP3A4 [3]; 10 µM): about five-fold
O=c1cc(-c2ccccc2)oc2c1ccc1ccccc12 [α-naphthoflavone, reference compound]	–	–	–	–	–	–	–	–	–	–	–	–	Increase of CBZ metabolism vs vehicle control (CYP3A4 [3]; 10 µM): 772%; Effect on in vitro NF metabolism (CYP3A4 [4]; 10 µM): did not significantly alter
COC(C)(C)CCC[C@](C)(O)[C@H]1CC[C@]2(C)[C@@H]1[C@H](O)C[C@@H]1[C@@]3(C)CC[C@H](O)C(C)(C)[C@@H]3CC[C@]12C [25-OCH3-PPD, 20(S)-25-methoxyl-dammarane-3β, 12β, 20-triol]	> 100	4.8	7.5	26.5	> 50	12.6	17.7	–	substantially activated	negligible	> 100	–	Activation of CYP3A4, Vivid red assay (CYP3A4 [2]; 10 µM): about 20%; Effect on CYP3A4, Vivid red assay (CYP3A4 [2]; high concentrations): weakly inhibited; inhibition at 30 min, 50 µM (CYP3A4 [2]; human, recombinant (cDNA-expressed) CYP3A4 BACULOSOMES, probe Vivid red substrate 3 µM): 25.4%
CC(C)=CCC[C@](C)(O)[C@H]1CC[C@]2(C)[C@@H]1[C@H](O)C[C@@H]1[C@@]3(C)CC[C@H](O[C@@H]4O[C@H](CO)[C@@H](O)[C@H](O)[C@H]4O)C(C)(C)[C@@H]3CC[C@]12C [Rh2]	> 100	–	–	49.9	> 50	–	47	inhibited CYP3A4 in a dose-dependent manner	did not significantly alter	–	9.8	weak activation effect	inhibition at 30 min, 50 µM (CYP1A2): 39.4%; IC50 (CYP2C9): 30.9 µM; inhibition at 30 min, 50 µM (CYP2D6): 20.3%; Effect on CYP3A4-catalyzed NF oxidation (CYP3A4 [4]; high concentration (50 µM)): weakly inhibited
